Structures are written as SMILES.

Common to all, as to format: biochemical
Common to all, as to conditions: Means and SD of at least two independent experiments

One assay concerns the target T1, NDM-1 (Klebsiella pneumoniae, UniProt C7C422).
T1 construct: made in house
The assay can be described thus: In vitro inhibition assay (kinetic fluorescence-based activity assay), NDM-1. On the procedure:
(§1) Protein expression and purification. The expression of IMP-7, VIM-1, and NDM-1 was performed according to the protocol previously published by Klingler et al. (Klingler, F. M.; Wichelhaus, T. A.; Frank, D.; Cuesta-Bernal, J.; El-Delik, J.; Müller, H. F.; Sjuts, H.; Gottig, S.; Koenigs, A.; Pos, K. M.; et al. Approved Drugs Containing Thiols as Inhibitors of Metallo-β-Lactamases: Strategy to Combat Multidrug-Resistant Bacteria. J. Med. Chem. 2015, 58 (8), 3626-3630. https://doi.org/10.1021/jm501844d) with slight modifications.
(§2) In vitro inhibition assay. Activity assays for NDM-1, VIM-1, VIM-2 and IMP-7 were carried out, as described by Klingler et al. Final protein concentrations were 0.5 nM (NDM-1), 4.0 nM (VIM-1), and 0.1 nM (IMP-7) in a 50 mM HEPES buffer (pH 7.5, 0.01% Triton X-100) Substrate (Fluorocillin™ (Invitrogen, Darmstadt, Germany) was dissolved in assay buffer to a final concentration of 888 nM. Test compounds were dissolved and pre-diluted in DMSO (final concentration: 1%). In a black polystyrol 96-well plate (Corning) an amount of […] of the respective inhibitor solution at different concentrations was incubated with […] of respective protein containing buffer for 30 minutes at room temperature. […] of substrate solution was added. The readout of the emitted fluorescence was started immediately (45 s for 30 cycles) using a Tecan Infinite F200Pro (Tecan Group Ltd; excitation at 495 nm and emission at 525 nm). Blank controls were performed without enzyme. Positive controls were performed with enzyme but without inhibitor. The inhibitory activity of each test compound was measured in three independent experiments. For calculation of IC50 values, data obtained from measurements with eight different inhibitor concentrations were used. For the evaluation of the sigmoidal dose response equation (variable slope with four parameters) GraphPad Prism 5 (GraphPad Software, La Jolla, Calif., USA) was used.

Another assay deals with IMP-7 (Pseudomonas aeruginosa, UniProt Q93AU3). The assay can be described thus: In vitro inhibition assay (kinetic fluorescence-based activity assay), IMP-7. The method, then: as §1, §2
Sequence of IMP-7 (Q93AU3 entry or part of it): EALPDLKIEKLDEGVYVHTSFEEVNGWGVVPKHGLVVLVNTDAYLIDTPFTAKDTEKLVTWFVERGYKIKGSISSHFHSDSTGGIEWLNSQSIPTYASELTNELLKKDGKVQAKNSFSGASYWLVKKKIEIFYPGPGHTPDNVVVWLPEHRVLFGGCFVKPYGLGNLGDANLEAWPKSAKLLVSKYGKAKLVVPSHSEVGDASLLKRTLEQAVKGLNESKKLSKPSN
The next assay deals with T2, VIM-1 (Pseudomonas aeruginosa, UniProt A0A0F7KYQ8).
T2 construct: made in house
Nature of the assay: In vitro inhibition assay (kinetic fluorescence-based activity assay), VIM-1. On the procedure: as §1, §2

T1 sequence (C7C422 29-270, looked up, species assumed): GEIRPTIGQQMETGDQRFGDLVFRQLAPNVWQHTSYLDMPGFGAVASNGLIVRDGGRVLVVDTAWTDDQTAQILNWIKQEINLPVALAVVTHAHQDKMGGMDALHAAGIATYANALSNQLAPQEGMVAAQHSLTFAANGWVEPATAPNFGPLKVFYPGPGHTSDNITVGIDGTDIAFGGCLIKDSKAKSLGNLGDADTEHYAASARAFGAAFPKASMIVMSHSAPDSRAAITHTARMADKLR

What is called IC50 is the concentration that inhibits the measured activity by half. Higher therefore signals weaker potency. Take `COC(=O)c1ccccc1NC(=O)CCS` [HIPS1685]: the IC50 against NDM-1 amounted to 1.3 ± 0.2 µM; against IMP-7 it was 1 ± 0.1 µM. On VIM-1, the “IC50 (μM) VIM-1” value was “n.i”.
Consider `O=C(CCS)Nc1cccc(O)c1` [HIPS1687], for which the half-maximal inhibitory concentration (IC50) against NDM-1 is 2.7 ± 0.5 µM; at IMP-7 it was 1.4 ± 0.2 µM; on VIM-1, 0.1 µM.
The corresponding values for `CC(=O)c1ccc(NC(=O)CCS)cc1` [HIPS5188] are 1.5 ± 0.3 µM, 5.5 ± 0.1 µM and 0.4 ± 0.1 µM.
The corresponding values for `O=C(CCS)Nc1ccc(O)cc1` [HIPS5190] are 4 ± 1.1 µM, 3.4 ± 0.7 µM and 0.2 µM.
As to `CS(=O)(=O)Nc1cccc(NC(=O)CCS)c1` [HIPS5585], the results for the IC50 against NDM-1, against IMP-7 and against VIM-1 were 2.2 ± 0.3 µM, 1.3 µM and 1.3 µM, respectively.
In the case of `COC(=O)c1ccc(NC(=O)CCS)cc1` [HIPS5586], the 50% inhibitory concentration (IC50) is 2.8 ± 0.1 µM against NDM-1, 1.1 ± 0.7 µM against IMP-7 and 0.1 µM against VIM-1.
`CS(=O)(=O)Nc1ccccc1NC(=O)CCS` [HIPS5654]: the figures for the 50% inhibitory concentration (IC50) against NDM-1 and on VIM-1 were 7 ± 0.3 µM and 1.9 ± 0.2 µM, respectively. For the same compound, the “IC50 (μM) IMP-7” value on IMP-7 is reported as “n.i”.
For the compound `O=C(CCS)Nc1ccc(S(=O)(=O)N2CCOCC2)cc1` [HIPS5659], the concentration for half-maximal inhibition (IC50) against NDM-1 was 2.5 ± 0.2 µM; at IMP-7, 7.1 ± 1.4 µM; against VIM-1 it was 1.7 ± 0.3 µM.
For the compound `O=C(CCS)Nc1ccccc1O` [HIPS5661], the half-maximal inhibitory concentration (IC50) at NDM-1 was determined as 2.2 ± 0.4 µM; against IMP-7, 3.3 ± 0.4 µM; on VIM-1 it was 0.2 µM.

Source of the values: patent US20230146507A1, “N-PHENYL-3-MERCAPTOPROPANAMIDE DERIVATIVES AS METALLO-BETA-LACTAMASE INHIBITORS FOR THE TREATMENT OF BACTERIAL INFECTIONS” (Helmholtz-Zentrum Für Infektionsforschung GmbH, priority 2020, published 2023).
